# Results: patent US20080200454A1, “CARBON-LINKED TETRAHYDRO-PYRAZOLO-PYRIDINE MODULATORS OF CATHEPSIN S” (priority 2007, published 2008)
# Molecular target: Recombinant human cathepsin S (CatS) (Homo sapiens, UniProt P25774)
# Assay: Recombinant human cathepsin S (CatS) inhibition assay, fluorogenic substrate Z-Valine-Valine-Arginine-AMC;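 also: Baculovirus-expressed CatS in pH 5.0 sodium acetate buffer with DTT and NaCl, fluorescence read each minute over 20 min, inhibition derived from rate slope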
# Conditions: not given
# Recombinant human cathepsin S (CatS), sequence (P25774 115-331): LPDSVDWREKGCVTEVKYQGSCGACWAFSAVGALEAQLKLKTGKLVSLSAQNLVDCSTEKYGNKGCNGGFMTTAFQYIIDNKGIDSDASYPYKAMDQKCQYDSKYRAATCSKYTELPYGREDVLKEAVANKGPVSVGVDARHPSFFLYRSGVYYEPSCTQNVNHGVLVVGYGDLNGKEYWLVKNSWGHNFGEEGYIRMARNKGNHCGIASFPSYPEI
row,SMILES,IC50 [nM]
1,"CS(=O)(=O)N1CCc2c(c(-c3ccc(Cl)c(C#Cc4ccc(CNCc5ccc(Cl)cc5)cc4)c3)nn2CCCN2CC3(COC3)C2)C1 [Example 468, 1-{4-[(2-Chloro-5-{5-(methylsulfonyl)-1-[3-(2-oxa-6-azaspiro[3.3]hept-6-yl)propyl]-4,5,6,7-tetrahydro-1H-pyrazolo[4,3-c]pyridin-3-yl}phenyl)ethynyl]phenyl}-N-[(4-chlorophenyl)methyl]methanamine]",190
2,"CC(NCc1cccc(C#Cc2cc(-c3nn(CCCN4CCOCC4)c4c3CN(S(C)(=O)=O)CC4)ccc2Cl)c1)c1ccccc1 (centres unmarked) [Example 507, N-{[3-({2-Chloro-5-[5-(methylsulfonyl)-1-(3-morpholin-4-ylpropyl)-4,5,6,7-tetrahydro-1H-pyrazolo[4,3-c]pyridin-3-yl]phenyl}ethynyl)phenyl]methyl}-1-phenylethanamine]",570
3,"CS(=O)(=O)N1CCc2c(c(-c3ccc(Cl)c(CCc4ccc(Cl)c(CNCc5ccccc5)c4)c3)nn2CCCN2CCOCC2)C1 [Example 288, 1-[2-Chloro-5-(2-{2-chloro-5-[5-(methylsulfonyl)-1-(3-morpholin-4-ylpropyl)-4,5,6,7-tetrahydro-1H-pyrazolo[4,3-c]pyridin-3-yl]phenyl}ethyl)phenyl]-N-(phenylmethyl)methanamine]",120
4,"NC(=O)C(=O)N1CCc2c(c(-c3ccc(Cl)c(C#Cc4ccc(Cl)c(CN5CCOCC5)c4)c3)nn2CCCN2CCCCC2)C1 [Example 601, 2-[3-(4-Chloro-3-{[4-chloro-3-(morpholin-4-ylmethyl)phenyl]ethynyl}phenyl)-1-(3-piperidin-1-ylpropyl)-1,4,6,7-tetrahydro-5H-pyrazolo[4,3-c]pyridin-5-yl]-2-oxoacetamide]",30
5,"CS(=O)(=O)N1CCc2c(c(-c3ccc(Cl)c(CCc4ccc(Cl)cc4)c3)nn2CCCN2CCOCC2)C1 [Example 57, 3-{4-Chloro-3-[2-(4-chloro-phenyl)-ethyl]-phenyl}-5-methanesulfonyl-1-(3-morpholin-4-yl-propyl)-4,5,6,7-tetrahydro-1H-pyrazolo[4,3-c]pyridine]",230
6,"Clc1ccc(CNCc2ccc(C#Cc3cc(-c4nn(CCCN5CCOCC5)c5c4CNCC5)ccc3Cl)cc2)cc1 [Example 166, 1-[4-({2-Chloro-5-[1-(3-morpholin-4-ylpropyl)-4,5,6,7-tetrahydro-1H-pyrazolo[4,3-c]pyridin-3-yl]phenyl}ethynyl)phenyl]-N-[(4-chlorophenyl)methyl]methanamine]",2520
7,"NC(=O)C(=O)N1CCc2c(c(-c3ccc(Cl)c(C#Cc4ccc(CNCc5ccc(Cl)cc5)cc4)c3)nn2CCCN2CCOCC2)C1 [Example 150, 2-[3-(4-Chloro-3-{[4-({[(4-chlorophenyl)methyl]amino}methyl)phenyl]ethynyl}phenyl)-1-(3-morpholin-4-ylpropyl)-1,4,6,7-tetrahydro-5H-pyrazolo[4,3-c]pyridin-5-yl]-2-oxoacetamide]",80
8,"CS(=O)(=O)N1CCc2c(c(-c3ccc(Cl)c(C#Cc4ccc(CNC5CCc6ccccc65)cc4)c3)nn2CCCN2CCN(c3ccccn3)CC2)C1 (centres unmarked) [Example 470, N-({4-[(2-Chloro-5-{5-(methylsulfonyl)-1-[3-(4-pyridin-2-ylpiperazin-1-yl)propyl]-4,5,6,7-tetrahydro-1H-pyrazolo[4,3-c]pyridin-3-yl}phenyl)ethynyl]phenyl}methyl)-2,3-dihydro-1H-inden-1-amine]",50
9,"C[C@H]1COCCN1CCCn1nc(-c2ccc(Cl)c(C#Cc3ccc4c(c3)CN(C3CC3)CC4)c2)c2c1CCN(C(N)=O)C2 [Example 282, 3-{4-Chloro-3-[(2-cyclopropyl-1,2,3,4-tetrahydroisoquinolin-7-yl)ethynyl]phenyl}-1-{3-[(3S)-3-methylmorpholin-4-yl]propyl}-1,4,6,7-tetrahydro-5H-pyrazolo[4,3-c]pyridine-5-carboxamide]",150
10,"CS(=O)(=O)N1CCc2c(c(-c3ccc(Cl)c(C#Cc4ccc(Cl)cc4)c3)nn2CC(O)CN2CCC3(CCNC3=O)CC2)C1 (centres unmarked) [Example 298, 8-{3-[3-{4-Chloro-3-[(4-chlorophenyl)ethynyl]phenyl}-5-(methylsulfonyl)-4,5,6,7-tetrahydro-1H-pyrazolo[4,3-c]pyridin-1-yl]-2-hydroxypropyl}-2,8-diazaspiro[4.5]decan-1-one]",50
11,"CS(=O)(=O)N1CCc2c(c(-c3ccc(Cl)c(C#Cc4ccc5c(c4)CN[C@H](C(=O)N4CCCCC4)C5)c3)nn2CCCN2CCOCC2)C1 [Example 486, (3S)-7-({2-Chloro-5-[5-(methylsulfonyl)-1-(3-morpholin-4-ylpropyl)-4,5,6,7-tetrahydro-1H-pyrazolo[4,3-c]pyridin-3-yl]phenyl}ethynyl)-3-(piperidin-1-ylcarbonyl)-1,2,3,4-tetrahydroisoquinoline]",30
12,"CS(=O)(=O)N1CCc2c(c(-c3ccc(Cl)c(CCc4ccc(Cl)cc4)c3)nn2C[C@@H](O)CN2CCC(C3CCNCC3)CC2)C1 [Example 246, (2S)-1-(4,4′-Bipiperidin-1-yl)-3-[3-{4-chloro-3-[2-(4-chlorophenyl)ethyl]phenyl}-5-(methylsulfonyl)-4,5,6,7-tetrahydro-1H-pyrazolo[4,3-c]pyridin-1-yl]propan-2-ol]",10
13,"CC(C)(C)OC(=O)N1CCC(C2CCN(C[C@H](O)Cn3nc(-c4ccc(Cl)c(CCc5ccc(Cl)cc5)c4)c4c3CCN(S(C)(=O)=O)C4)CC2)CC1 [Example 245, 1,1-Dimethylethyl 1′-{(2S)-3-[3-{4-chloro-3-[2-(4-chlorophenyl)ethyl]phenyl}-5-(methylsulfonyl)-4,5,6,7-tetrahydro-1H-pyrazolo[4,3-c]pyridin-1-yl]-2-hydroxypropyl}-4,4′-bipiperidine-1-carboxylate]",30
14,"CS(=O)(=O)NCc1ccc(C#Cc2cc(-c3nn(CCCN4CCOCC4)c4c3CN(S(C)(=O)=O)CC4)ccc2Cl)cc1 [Example 70, N-(4-{2-Chloro-5-[5-methanesulfonyl-1-(3-morpholin-4-yl-propyl)-4,5,6,7-tetrahydro-1H-pyrazolo[4,3-c]pyridin-3-yl]-phenylethynyl}-benzyl)-methanesulfonamide]",270
15,"C[C@H]1COCCN1C[C@H](O)Cn1nc(-c2ccc(Cl)c(C#Cc3ccc(CNCc4ccc(Cl)cc4)cc3)c2)c2c1CCN(C(N)=O)C2 [Example 257, 3-(4-Chloro-3-{4-[(4-chloro-benzylamino)-methyl]-phenylethynyl}-phenyl)-1-[(2S)-2-hydroxy-3-((3S)-3-methyl-morpholin-4-yl)-propyl]-1,4,6,7-tetrahydro-pyrazolo[4,3-c]pyridine-5-carboxylic acid amide]",70

# Same assay, conditions: CatS IC50
row,SMILES,IC50 [nM]
1,"CS(=O)(=O)N1CCc2c(c(-c3ccc(Cl)c(C#Cc4ccc(CN[C@@H]5Cc6ccccc6[C@@H]5O)cc4)c3)nn2CCCN2CCN(c3ccccn3)CC2)C1 [Example 213, (1S,2R)-2-[({4-[(2-Chloro-5-{5-(methylsulfonyl)-1-[3-(4-pyridin-2-ylpiperazin-1-yl)propyl]-4,5,6,7-tetrahydro-1H-pyrazolo[4,3-c]pyridin-3-yl}phenyl)ethynyl]phenyl}methyl)amino]-2,3-dihydro-1H-inden-1-ol]",20
2,"CC(C)(C)OC(=O)N1CCN(CCCn2nc(-c3ccc(Cl)c(C#Cc4ccc(CNCc5ccc(Cl)cc5)cc4)c3)c3c2CCN(S(C)(=O)=O)C3)CC1 [Example 367, 1,1-Dimethylethyl 4-{3-[3-(4-chloro-3-{[4-({[(4-chlorophenyl)methyl]amino}methyl)phenyl]ethynyl}phenyl)-5-(methylsulfonyl)-4,5,6,7-tetrahydro-1H-pyrazolo[4,3-c]pyridin-1-yl]propyl}piperazine-1-carboxylate]",90
3,"CC(C)CC#Cc1cc(-c2nn(CCCN3CCOCC3)c3c2CN(S(C)(=O)=O)CC3)ccc1Cl [Example 51, 3-[4-Chloro-3-(4-methyl-pent-1-ynyl)-phenyl]-5-methanesulfonyl-1-(3-morpholin-4-yl-propyl)-4,5,6,7-tetrahydro-1H-pyrazolo[4,3-c]pyridine]",8250
4,"CNCCCNC(=O)c1ccc(C#Cc2cc(-c3nn(CCCN4CCSCC4)c4c3CN(C(N)=O)CC4)ccc2Cl)cc1 [Example 612, 3-{4-Chloro-3-[(4-{[3-(methylamino)propyl]carbamoyl}phenyl)ethynyl]phenyl}-1-(3-thiomorpholin-4-ylpropyl)-1,4,6,7-tetrahydro-5H-pyrazolo[4,3-c]pyridine-5-carboxamide]",80
5,"NC(=O)N1CCc2c(c(-c3ccc(Cl)c(C#Cc4ccc(CNCc5ccc(Cl)cc5)cc4)c3)nn2CCCN2CCC3(CC2)OCCO3)C1 [Example 462, 3-(4-Chloro-3-{[4-({[(4-chlorophenyl)methyl]amino}methyl)phenyl]ethynyl}phenyl)-1-[3-(1,4-dioxa-8-azaspiro[4.5]dec-8-yl)propyl]-1,4,6,7-tetrahydro-5H-pyrazolo[4,3-c]pyridine-5-carboxamide]",50
6,"O=C(c1ccccn1)N1CCc2c(c(-c3ccc(Cl)c(C#Cc4ccc(Cl)cc4)c3)nn2CCCN2CCOCC2)C1 [Example 137, [3-[4-Chloro-3-(4-chloro-phenylethynyl)-phenyl]-1-(3-morpholin-4-yl-propyl)-1,4,6,7-tetrahydro-pyrazolo[4,3-c]pyridin-5-yl]-pyridin-2-yl-methanone]",140
7,"CN(Cc1ccc(Cl)cc1)Cc1ccc(C#Cc2cc(-c3nn(CCCN4CCN(c5ccccn5)CC4)c4c3CN(S(C)(=O)=O)CC4)ccc2Cl)cc1 [Example 502, 1-{4-[(2-Chloro-5-{5-(methylsulfonyl)-1-[3-(4-pyridin-2-ylpiperazin-1-yl)propyl]-4,5,6,7-tetrahydro-1H-pyrazolo[4,3-c]pyridin-3-yl}phenyl)ethynyl]phenyl}-N-[(4-chlorophenyl)methyl]-N-methylmethanamine]",110

# Same assay, conditions: CatS IC50, Table 2; average of results obtained
row,SMILES,IC50 [nM]
1,"CS(=O)(=O)N1CCc2c(c(-c3ccc(Cl)c(C#Cc4ccccc4)c3)nn2CCCN2CCOCC2)C1 [Example 39, 3-(4-Chloro-3-phenylethynyl-phenyl)-5-methanesulfonyl-1-(3-morpholin-4-yl-propyl)-4,5,6,7-tetrahydro-1H-pyrazolo[4,3-c]pyridine]",610
